Earlier results as cited in patent US11147777B1, “Methods and formulations for efficacious pain relief by transdermal delivery of cannabidiol” (CHARLOTTE'S WEB, INC., priority 2017, dated 2021).

Target: T1, mTRPM8 (Mus musculus, UniProt Q8R4D5)
T1 construct: expressed in transfected cells; host or cells: HEK293
Details: normalized to the efficacy of icilin, as disclosed by Behrendt et al.

T1 sequence (Q8R4D5 whole entry): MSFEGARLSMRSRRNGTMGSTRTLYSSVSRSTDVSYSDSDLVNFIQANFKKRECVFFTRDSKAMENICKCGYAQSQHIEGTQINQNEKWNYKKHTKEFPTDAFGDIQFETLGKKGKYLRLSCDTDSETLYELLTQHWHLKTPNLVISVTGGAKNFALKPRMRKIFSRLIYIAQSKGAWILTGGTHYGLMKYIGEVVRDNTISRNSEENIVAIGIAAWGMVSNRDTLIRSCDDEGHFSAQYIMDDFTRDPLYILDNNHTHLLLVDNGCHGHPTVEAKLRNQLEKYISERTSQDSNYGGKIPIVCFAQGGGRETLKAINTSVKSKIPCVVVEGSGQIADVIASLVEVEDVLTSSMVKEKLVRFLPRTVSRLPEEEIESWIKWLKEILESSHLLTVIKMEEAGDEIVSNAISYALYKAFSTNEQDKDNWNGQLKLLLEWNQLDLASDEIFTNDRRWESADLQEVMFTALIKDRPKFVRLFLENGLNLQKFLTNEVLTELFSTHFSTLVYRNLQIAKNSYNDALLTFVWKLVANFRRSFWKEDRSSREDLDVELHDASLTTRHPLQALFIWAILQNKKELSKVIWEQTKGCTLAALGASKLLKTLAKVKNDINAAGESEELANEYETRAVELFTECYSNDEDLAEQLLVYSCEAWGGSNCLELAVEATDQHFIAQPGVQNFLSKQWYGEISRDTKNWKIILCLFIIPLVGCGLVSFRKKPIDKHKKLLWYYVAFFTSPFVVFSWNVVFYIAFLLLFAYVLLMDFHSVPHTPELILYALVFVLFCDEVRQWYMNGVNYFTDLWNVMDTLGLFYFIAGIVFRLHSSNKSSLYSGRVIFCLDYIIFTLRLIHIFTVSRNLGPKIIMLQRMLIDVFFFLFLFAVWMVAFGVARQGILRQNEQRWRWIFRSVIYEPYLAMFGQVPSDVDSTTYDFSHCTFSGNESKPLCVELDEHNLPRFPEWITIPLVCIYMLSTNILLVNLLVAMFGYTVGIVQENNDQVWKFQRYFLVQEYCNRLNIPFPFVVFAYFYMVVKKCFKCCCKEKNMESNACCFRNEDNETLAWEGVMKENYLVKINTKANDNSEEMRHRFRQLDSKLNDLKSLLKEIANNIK

## CC1CCC(C(C)C)C(O)C1 (stereo not shown) [menthol]
  relative efficacy as TRPM8 agonist on icilin-normalized scale (100 menthol = 70 icilin): 70
